From publication PMC11181322, “Copper(II) Complexes with Isomeric Morpholine-Substituted 2-Formylpyridine Thiosemicarbazone Hybrids as Potential Anticancer Drugs Inhibiting Both Ribonucleotide Reductase and Tubulin Polymerization: The Morpholine Position Matters” (Journal of Medicinal Chemistry, 2024)

Key:
[1] = Cyclic voltammetry of copper(II) complexes in DMSO/n-Bu4NPF6; type: physicochemical; settings: for Epa^1: first anodic peak potential vs Fc+/Fc; for Epa^1 / Epa^2: 100 mV s^–1; for Epa^2: second anodic peak potential vs Fc+/Fc; for E1/2^red: vs Fc+/Fc, scan rate 100 mV s^–1
Procedure: The redox properties of the copper(II) complexes 3–6 were investigated by electrochemical, EPR, and UV–vis spectroelectrochemical measurements. […] While the half-wave reduction potentials E1/2^red for complexes 3–5 were almost the same (−0.82 V vs Fc^+/Fc), the E1/2^red for 6 is by 0.07 V more positive (−0.75 V vs Fc^+/Fc), as summarized in Table 4. The corresponding proligands are not redox active in the cathodic part (not shown).
Cyclic voltammetric experiments with 0.5 mM solutions of copper(II) complexes 3–6 in 0.1 M nBu4NPF6 (puriss quality from Fluka; dried under reduced pressure at 70 °C for 24 h before use) as supporting electrolyte in DMSO (SeccoSolv max. 0.025% H2O, Merck) were performed under Ar using a three-electrode arrangement with Pt wire as the counter electrode and Ag wire as the pseudoreference electrode. Glassy carbon or Pt wire served as the working electrode. Ferrocene purchased from Sigma-Aldrich was used as the internal potential standard without further purification. All potentials in voltammetric studies were quoted vs ferricenium/ferrocene (Fc^+/Fc) as the redox couple. A Heka PG310USB (Lambrecht, Germany) potentiostat with a PotMaster 2.73 software package served for the potential control in voltammetric studies. In situ ultraviolet–visible-near-infrared (UV–vis–NIR) spectroelectrochemical measurements were performed on a spectrometer (Avantes, Model AvaSpec-2048 × 14-USB2 in the spectroelectrochemical cell kit ([…]3) with the Pt-microstructured honeycomb working electrode, purchased from Pine Research Instrumentation. The cell was positioned in the CUV-UV Cuvette Holder (Ocean Optics) connected to the diode array UV–vis-NIR spectrometer by optical fibers. UV–vis-NIR spectra were processed using the AvaSoft 7.7 software package. Halogen and deuterium lamps were used as light sources (Avantes, Model AvaLight-DH-S-BAL).

[2] = Redox reaction of the copper(II) complexes with GSH (UV–vis, anoxic); type: physicochemical; settings: pH 7.4 (50 mM HEPES); ccomplex = 25 μM; cGSH = 1.25 mM; pure water; 25 °C
Source text: The direct reduction of the copper(II) complexes with the antioxidant GSH was investigated in anoxic aqueous solution at pH 7.4 by UV–vis spectrophotometry. At this pH, the complex [Cu(HL)]^+ is assumed to predominate according to the speciation studies (vide supra). The spectral changes were monitored in the wavelength range 250–550 nm by using a large excess of GSH (50 equiv). In this wavelength range, the spectral changes are due to the absorption of the metal complex and the ligand.
These changes imply that, after reduction in the presence of excess GSH, the generated copper(I) complex is not stable and liberates the free TSC ligand. […] The time-dependent absorbance changes are shown for all the studied systems in Figure 4b. The observed rate constants (kobs) were calculated (Table 2) as a semiquantitative description of the reaction kinetics. […] The obtained kobs values fall into the range for Triapine (0.10 min^–1), 2-pyridinecarboxaldehyde TSC (0.041 min^–1), and N-monomethylated N-methyl-Triapine (0.077 min^–1), measured under similar conditions.[67] To find out whether this slightly different kinetics for 6 and 3–5 is in accordance with their reduction potentials, cyclic voltammetry was performed.
The redox reaction of the copper(II) complexes with GSH and ascorbic acid was studied at 25.0 ± 0.1 °C on a Hewlett-Packard 8452A diode array spectrophotometer using a special, tightly closed tandem cuvette (Hellma Tandem Cell, 238-QS). The reactants were separated until the reaction was triggered. Both isolated pockets of the cuvette were completely deoxygenated by bubbling a stream of Ar for 10 min before mixing the reactants. Spectra were recorded before and then immediately after the mixing, and changes were followed until no further absorbance change was observed. One of the isolated pockets contained the reducing agent, and the other contained the complex. Their final concentrations were 1250 and 25 μM, respectively. The pH of all the solutions was adjusted to 7.40 by 50 mM HEPES buffer. The ionic strength of the solution was 0.1 M (KCl). The stock solutions of the reducing agents and the complexes were freshly prepared every day. During the calculations, the absorbance (A) – time (t) curves were fitted and analyzed at the λmax of the complex. (A0 – Afinal) × e^(−a×t) + Afinal was the fitting equation used, where the A0, Afinal, and a parameters were refined and accepted at the minimal value of the weighted sum of squared residuals (difference between the measured and calculated absorbance values) at the given wavelength. Then, observed rate constants (kobs) of the redox reaction were obtained from the data points of the simulated absorbance–time curves as the slope of the ln(A/A0) vs time plots.

MES-SA/Dx5 cells = experiment: Fluorescent protein-based cytotoxicity assay, MES-SA/Dx5; type: cell-based, human; settings: for IC50: 120 h, ± SD, n = 3; for SR, selectivity ratio IC50 (MES-SA)/IC50 (MES-SA/Dx5): in the absence of TQ
Source text: The cytotoxic activity of proligands H2L^3–H2L^6 and their copper(II) complexes 3–6 was investigated in the MES-SA (human uterine sarcoma) and in its MDR counterpart (MES-SA/Dx5) cell lines by a fluorescent protein-based assay.[73]
The human uterine sarcoma cell lines MES-SA and the doxorubicin selected MES-SA-Dx5 were obtained from ATCC (MES-SA: No. CRL-1976, MES-SA/Dx5: No. CRL-1977) and were used for the intracellular ROS generation studies. For cytotoxicity, we used the fluorescent cell lines MES-SA mCherry and MES-SA/Dx5 eGFP, which were created by lentiviral transductions of the respective genes.[73] The phenotype of the resistant cells was maintained by 500 nM doxorubicin treatment a week before use and was verified using cytotoxicity assays. Cells were cultivated at 37 °C, 5% CO2 in Dulbecco’s modified Eagle's Medium (DMEM, Sigma-Aldrich), supplemented with 10% fetal bovine serum, 5 mM glutamine, and 50 unit/mL penicillin and streptomycin (Thermo Fisher).
MES-SA mCherry and MES-SA/Dx5 eGFP cell suspensions were seeded after trypsinization at 2500 cells/20 μL density on 384-well plates, containing 20 μL of completed medium. The next day, serial dilution of the compounds was prepared and added in an additional 20 μL, with or without 0.4 μM Tariquidar. Liquid handling steps were performed by a Hamilton StarLet robot. […] The mean and standard deviation of the pIC50 values were calculated and converted to IC50 values.

Compound | Epa^1 [1] | Epa^2 [1] | E1/2^red [1] | kobs, redox reaction with GSH [2] [min^–1] | IC50 (MES-SA/Dx5 cells) [µM] | SR, selectivity ratio IC50 (MES-SA)/IC50 (MES-SA/Dx5) (MES-SA/Dx5 cells)
Cc1cc(NC(=NN=Cc2ccc(CN3CCOCC3)cn2)[S][Cu][Cl])cc(C)c1O [complex 5, [Cu(HL^5)Cl]·2.5H2O] | +0.29 V | +0.69 V | –0.82 V | 0.058 ± 0.010 | 8.1 ± 2 | 3.81
Cc1cc(NC(=NN=Cc2cccc(CN3CCOCC3)n2)[S][Cu][Cl])cc(C)c1O [complex 6, [Cu(HL^6)Cl]·H2O] | +0.26 V | +0.66 V |  | 0.165 ± 0.011 | 1.4 ± 0.2 | 0.21
Cc1cc(NC(=NN=Cc2cc(CN3CCOCC3)ccn2)[S][Cu][Cl])cc(C)c1O [complex 4, [Cu(HL^4)Cl]·1.5H2O] | +0.31 V | +0.77 V | –0.82 V | 0.079 ± 0.019 | 5.8 ± 0.1 | 3.33
